From PubChem BioAssay AID248 (DTP/NCI, 2004)
Several values for one entry are separate records, joined by “and”; a condition that tells them apart may be missing. Equal entries are not always repeated. Toxic doses and inconclusive results are not listed. Cut-off read from the data, not from the text of the source: active = T/C of 150% or more; inactive = T/C below 125%.

Test system: L1210 leukemia ip in BDF1 mice, survival T/C
Assay: NCI In Vivo Anticancer Drug Screen. Data for tumor model L1210 Leukemia (intraperitoneal) in B6D2F1 (BDF1) mice
Conditions: endpoint: mean survival time, higher = longer survival
Procedure, shortened: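 Value reflects the ratio of survival in compound-treated mice to survival in vehicle-treated controls, with both groups carrying the same transplanted tumor.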

[1] = dose: 100.0 mg/kg/injection, schedule: Q04DX003 (ip), vehicle: saline
[2] = dose: 200.0 mg/kg/injection, schedule: Q04DX003 (ip), vehicle: saline
[3] = dose: 400.0 mg/kg/injection, schedule: Q04DX003 (ip), vehicle: saline
[4] = dose: 25.0 mg/kg/injection, schedule: Q01DX009 (ip), vehicle: saline
[5] = dose: 50.0 mg/kg/injection, schedule: Q01DX009 (ip), vehicle: saline
[6] = dose: 100.0 mg/kg/injection, schedule: Q01DX001 (ip), vehicle: saline
[7] = dose: 200.0 mg/kg/injection, schedule: Q01DX001 (ip), vehicle: saline
[8] = dose: 400.0 mg/kg/injection, schedule: Q01DX001 (ip), vehicle: saline
[9] = dose: 100.0 mg/kg/injection, schedule: Q04DX003 (ip), vehicle: saline with Tween-80
[10] = dose: 200.0 mg/kg/injection, schedule: Q04DX003 (ip), vehicle: saline with Tween-80
[11] = dose: 400.0 mg/kg/injection, schedule: Q04DX003 (ip), vehicle: saline with Tween-80
[12] = dose: 100.0 mg/kg/injection, schedule: Q01DX001 (ip), vehicle: Klucel (hydroxypropylcellulose) (HPC)
[13] = dose: 200.0 mg/kg/injection, schedule: Q01DX001 (ip), vehicle: Klucel (hydroxypropylcellulose) (HPC)
[14] = dose: 400.0 mg/kg/injection, schedule: Q01DX001 (ip), vehicle: Klucel (hydroxypropylcellulose) (HPC)
[15] = dose: 100.0 mg/kg/injection, schedule: Q01DX009 (ip), vehicle: saline with Tween-80
[16] = dose: 200.0 mg/kg/injection, schedule: Q01DX009 (ip), vehicle: saline with Tween-80
[17] = dose: 400.0 mg/kg/injection, schedule: Q01DX009 (ip), vehicle: saline with Tween-80

Measured: T/C

c1ccc(N/N=C2/CCN3CCCc4cccc2c43)cc1
inactive: dose: 3.0 mg/kg/injection, schedule: Q01DX009 (ip), vehicle: DMSO 98 % of control | dose: 6.0 mg/kg/injection, schedule: Q01DX009 (ip), vehicle: DMSO 96 % of control | dose: 12.0 mg/kg/injection, schedule: Q01DX009 (ip), vehicle: DMSO 95 % of control | dose: 12.5 mg/kg/injection, schedule: Q04DX003 (ip), vehicle: DMSO 101 % of control | dose: 25.0 mg/kg/injection, schedule: Q01DX009 (ip), vehicle: DMSO 89 % of control | dose: 25.0 mg/kg/injection, schedule: Q04DX003 (ip), vehicle: DMSO 100 % of control | dose: 50.0 mg/kg/injection, schedule: Q04DX003 (ip), vehicle: DMSO 104 % of control | dose: 100.0 mg/kg/injection, schedule: Q04DX003 (ip), vehicle: gum acacia 95 % of control

Cc1cc(C)c2[nH]c(=O)c(Br)c(C)c2c1
inactive: dose: 100.0 mg/kg/injection, schedule: Q01DX001 (ip), vehicle: other 93 % of control | dose: 200.0 mg/kg/injection, schedule: Q01DX001 (ip), vehicle: other 98 % of control | dose: 400.0 mg/kg/injection, schedule: Q01DX001 (ip), vehicle: other 106 % of control

CN1C(=O)C=C(N)C1=O
inactive: [1] 96 % of control | [2] 94 % of control | [3] 91 % of control

CCCCCCCCCCCCCCCCN1CCCN(CCCCCCCCCCCCCCCC)CC1
inactive: [4] 107 % of control and 113 % of control | [5] 95 % of control and 100 % of control | dose: 100.0 mg/kg/injection, schedule: Q01DX009 (ip), vehicle: saline 94 % of control and 102 % of control | dose: 200.0 mg/kg/injection, schedule: Q01DX009 (ip), vehicle: saline 91 % of control

Nc1nc2ccc(CNc3ccc(C(=O)NC(CC(=O)O)C(=O)O)cc3)cc2c(=O)[nH]1 (configuration not stated)
inactive: dose: 18.7 mg/kg/injection, schedule: Q01DX001 (ip), vehicle: saline with Tween-80 102 % of control | dose: 37.5 mg/kg/injection, schedule: Q01DX001 (ip), vehicle: saline with Tween-80 113 % of control | dose: 75.0 mg/kg/injection, schedule: Q01DX001 (ip), vehicle: saline with Tween-80 115 % of control | dose: 100.0 mg/kg/injection, schedule: Q01DX001 (ip), vehicle: saline with Tween-80 109 % of control | dose: 200.0 mg/kg/injection, schedule: Q01DX001 (ip), vehicle: saline with Tween-80 109 % of control

OCCN1CC2CCCC1O2 (configuration not stated)
inactive: dose: 50.0 mg/kg/injection, schedule: Q01DX001 (ip), vehicle: saline 101 % of control | [6] 101 % of control | [7] 103 % of control | [8] 101 % of control

COc1ccc2c(c1)C(=O)c1ccccc1-2
inactive: [9] 101 % of control | [10] 98 % of control | [11] 109 % of control

CCN(C(=O)Nc1cccc(Cl)c1)c1ccccc1C
inactive: [9] 93 % of control | [10] 88 % of control

O=NN(CCCl)C(=O)C1CCCCC1
inactive: dose: 4.5 mg/kg/injection, schedule: Q01DX001 (ip), vehicle: carboxymethylcellulose (CMC) 110 % of control | dose: 9.0 mg/kg/injection, schedule: Q01DX001 (ip), vehicle: carboxymethylcellulose (CMC) 112 % of control | dose: 18.0 mg/kg/injection, schedule: Q01DX001 (ip), vehicle: carboxymethylcellulose (CMC) 113 % of control | dose: 26.0 mg/kg/injection, schedule: Q01DX001 (ip), vehicle: carboxymethylcellulose (CMC) 112 % of control | dose: 40.0 mg/kg/injection, schedule: Q01DX001 (ip), vehicle: carboxymethylcellulose (CMC) 108 % of control | dose: 60.0 mg/kg/injection, schedule: Q01DX001 (ip), vehicle: carboxymethylcellulose (CMC) 110 % of control | dose: 93.0 mg/kg/injection, schedule: Q01DX001 (ip), vehicle: carboxymethylcellulose (CMC) 113 % of control | dose: 187.0 mg/kg/injection, schedule: Q01DX001 (ip), vehicle: carboxymethylcellulose (CMC) 116 % of control

O=C(/C=C/c1ccc2c(c1)OCO2)c1cccc([N+](=O)[O-])c1
inactive: dose: 100.0 mg/kg/injection, schedule: Q04DX002 (ip), vehicle: Klucel (hydroxypropylcellulose) (HPC) 93 % of control | dose: 200.0 mg/kg/injection, schedule: Q04DX002 (ip), vehicle: Klucel (hydroxypropylcellulose) (HPC) 104 % of control | dose: 400.0 mg/kg/injection, schedule: Q04DX002 (ip), vehicle: Klucel (hydroxypropylcellulose) (HPC) 100 % of control

[O-][N+](Cc1ccccc1)=Nc1ccccc1
inactive: [12] 100 % of control | [13] 96 % of control | [14] 89 % of control

CCN(CC)CCOc1ccccc1C(=O)CCc1ccccc1
inactive: dose: 12.5 mg/kg/injection, schedule: Q01DX009 (ip), vehicle: saline 93 % of control | [4] 93 % of control | dose: 25.0 mg/kg/injection, schedule: Q04DX003 (ip), vehicle: saline 99 % of control | [5] 100 % of control | dose: 50.0 mg/kg/injection, schedule: Q04DX003 (ip), vehicle: saline 97 % of control | [1] 102 % of control

Cc1cc(C)cc(NC(=O)c2ccccc2N)c1
inactive: [9] 96 % of control | [10] 91 % of control | [11] 93 % of control

Nc1ncnc2nc(-c3cccc([N+](=O)[O-])c3)[nH]c12
inactive: dose: 50.0 mg/kg/injection, schedule: Q01DX001 (ip), vehicle: Klucel (hydroxypropylcellulose) (HPC) 100 % of control | [12] 91 % of control | [13] 88 % of control

C1CCCC(=NN=C2CCCCCCC2)CCC1
inactive: [15] 89 % of control | [1] 95 % of control | [16] 93 % of control | [2] 89 % of control | [17] 89 % of control | [3] 95 % of control

COc1ccc(Br)cc1/C=N/N=C/c1cc(Br)ccc1OC
inactive: [15] 89 % of control | [9] 111 % of control | [16] 92 % of control | [10] 93 % of control | [17] 94 % of control | [11] 95 % of control

O=C(Nc1ccc(NC(=O)/C(Cl)=C/Cl)c2c1C(=O)c1ccccc1C2=O)/C(Cl)=C/Cl
inactive: dose: 100.0 mg/kg/injection, schedule: Q01DX001 (ip), vehicle: carboxymethylcellulose (CMC) 92 % of control | dose: 200.0 mg/kg/injection, schedule: Q01DX001 (ip), vehicle: carboxymethylcellulose (CMC) 92 % of control | dose: 400.0 mg/kg/injection, schedule: Q01DX001 (ip), vehicle: carboxymethylcellulose (CMC) 100 % of control

CCN(CC)CCO[C@H]1CC[C@@]2(C)C(=CC[C@@H]3[C@@H]2CC[C@]2(C)C(=O)CC[C@@H]32)C1
inactive: dose: 50.0 mg/kg/injection, schedule: Q01DX001 (sc), vehicle: steriod suspending solution 101 % of control | dose: 100.0 mg/kg/injection, schedule: Q01DX001 (sc), vehicle: steriod suspending solution 90 % of control

COC1C(N)C(O)OC(CO)C1O (configuration not stated)
inactive: [6] 99 % of control | [7] 103 % of control | [8] 94 % of control

Nc1ccc2c(c1)C(=O)c1ccccc1-2
inactive: [12] 88 % of control | [13] 95 % of control | [14] 97 % of control

CCCCCCCN(CCCCCCC)CC(O)c1cc2ccc(Cl)cc2nc1-c1ccc(Cl)cc1 (configuration not stated)
inactive: dose: 100.0 mg/kg/injection, schedule: Q01DX009 (ip), vehicle: Klucel (hydroxypropylcellulose) (HPC) 87 % of control | dose: 200.0 mg/kg/injection, schedule: Q01DX009 (ip), vehicle: Klucel (hydroxypropylcellulose) (HPC) 97 % of control | dose: 400.0 mg/kg/injection, schedule: Q01DX009 (ip), vehicle: Klucel (hydroxypropylcellulose) (HPC) 87 % of control

O=[N+]([O-])c1ccc(N=Nc2c(Cl)cc(O)cc2Cl)cc1
inactive: dose: 25.0 mg/kg/injection, schedule: Q01DX009 (ip), vehicle: saline with Tween-80 96 % of control | dose: 50.0 mg/kg/injection, schedule: Q01DX009 (ip), vehicle: saline with Tween-80 89 % of control | [15] 89 % of control

Nc1nc(NCCCc2ccccc2)cc(=O)[nH]1
inactive: dose: 25.0 mg/kg/injection, schedule: Q04DX003 (ip), vehicle: saline with Tween-80 98 % of control | dose: 50.0 mg/kg/injection, schedule: Q04DX003 (ip), vehicle: saline with Tween-80 92 % of control

O=c1[nH]c2sccc2c(=O)n1O
inactive: [12] 106 % of control | [13] 97 % of control | [14] 97 % of control
